Organism: Rattus norvegicus
Experiment: Open TG-GATES - Regimen: Daily Repeat
Assay type: toxicity, organism-based, Sprague-Dawley
Parameters: regimen Daily Repeat, gender Male, age 6 weeks
Details: in vivo, po, route gavage; for ALP / ALT / AST / BUN / CRE / DBIL / GLC / IP / K / LDH / Na / RALB / TBIL / TC / TG / TP / gamma-GTP: tissue Plasma; for Bas / Eos / Fbg / Lym / MCH / MCHC / MCV / Mono / Neu / PT / Plat / RBC / Ret / WBC: tissue Blood; for KIDNEY_L / KIDNEY_R / KIDNEY_TOTAL: tissue Kidney
[1] = 3 mg/kg, […], dose level Low, time 28 day
[2] = 10 mg/kg, 72 h, dose level Middle, time 3 day
[3] = 10 mg/kg, […], dose level Middle, time 7 day
[4] = 10 mg/kg, […], dose level Middle, time 14 day
[5] = 10 mg/kg, […], dose level Middle, time 28 day
[6] = 30 mg/kg, 72 h, dose level High, time 3 day
[7] = 30 mg/kg, […], dose level High, time 7 day
[8] = 30 mg/kg, […], dose level High, time 14 day

For Cc1cnc(NC(=O)C2=C(O)c3ccccc3S(=O)(=O)N2C)s1 [MELOXICAM], the ALP [1] was 620 IU/L, the ALT [1] was 33.6 IU/L and the AST [1] was 64.4 IU/L. For the same compound, the BUN [1] was 18.2 mg/dL, the CRE [1] was 0.5 mg/dL and the DBIL [1] was 0.1 mg/dL. The GLC [1] was 235.2 mg/dL, the IP [1] was 7.2 mg/dL and the K [1] was 3.9 meq/L. For the same compound, the LDH [1] was 170.8 IU/L, the Na [1] was 142 meq/L and the RALB [1] was 3.5 g/dL. It also gave a TBIL [1] of 0.2 mg/dL, a TC [1] of 71.2 mg/dL and a TG [1] of 121.6 mg/dL. The TP [1] was 5.9 g/dL, the gamma-GTP [1] was 1.2 IU/L and the TERMINAL_BW [2] was 246.9 g. The Bas [2] was 0.8%, the Eos [2] was 0.6% and the Fbg [2] was 248.8 mg/dL. The Lym [2] was 71.4%, the MCH [2] was 21.7 pg and the MCHC [2] was 34.1%. It also gave an MCV [2] of 63.6 fL, a Mono [2] of 3.4% and a Neu [2] of 23.4%. For the same compound, the PT [2] was 11.7 s, the Plat [2] was 127 x10_4/uL and the RBC [2] was 635.2 x10_4/ul. For the same compound, the Ret [2] was 6%, the WBC [2] was 135.2 x10_2/uL and the KIDNEY_L [2] was 1.1 g. For the same compound, the KIDNEY_R [2] was 1.1 g, the KIDNEY_TOTAL [2] was 2.3 g and the ALP [2] was 919 IU/L. It also gave an ALT [2] of 43.2 IU/L, an AST [2] of 75.4 IU/L and a CRE [2] of 0.4 mg/dL. The DBIL [2] was 0.1 mg/dL, the IP [2] was 7.5 mg/dL and the K [2] was 4.1 meq/L. For the same compound, the LDH [2] was 242.6 IU/L, the Na [2] was 142.2 meq/L and the RALB [2] was 3.5 g/dL. The TBIL [2] was 0.2 mg/dL, the TC [2] was 79 mg/dL and the TG [2] was 129.2 mg/dL. For the same compound, the TP [2] was 5.7 g/dL, the gamma-GTP [2] was 1 IU/L and the TERMINAL_BW [3] was 277.9 g. It also gave a TERMINAL_BW [4] of 321.8 g, a TERMINAL_BW [5] of 398.2 g and a Bas [3] of 0.6%. The Eos [3] was 1%, the Fbg [3] was 223.8 mg/dL and the Lym [3] was 73.8%. The MCH [3] was 21.5 pg, the MCHC [3] was 34.5% and the MCV [3] was 62.2 fL. It also gave a Mono [3] of 2.8%, a Neu [3] of 21.8% and a PT [3] of 11.9 s. The RBC [3] was 633 x10_4/ul, the Ret [3] was 5.4% and the WBC [3] was 119.8 x10_2/uL. For the same compound, the Bas [4] was 1%, the Eos [4] was 0.8% and the Fbg [4] was 234.2 mg/dL. It also gave a Lym [4] of 74.2%, an MCH [4] of 20.3 pg and an MCHC [4] of 33.7%. For the same compound, the MCV [4] was 60 fL, the Mono [4] was 3% and the Neu [4] was 21.2%. For the same compound, the PT [4] was 11.6 s, the Plat [4] was 116.5 x10_4/uL and the RBC [4] was 699.4 x10_4/ul. For the same compound, the Ret [4] was 4.5%, the WBC [4] was 135.2 x10_2/uL and the Bas [5] was 1%. For the same compound, the Eos [5] was 1%, the Fbg [5] was 242.8 mg/dL and the Lym [5] was 73%. The MCH [5] was 19.4 pg, the MCHC [5] was 33.9% and the MCV [5] was 57.2 fL. For the same compound, the Mono [5] was 3.2%, the Neu [5] was 21.4% and the PT [5] was 11.5 s. For the same compound, the Plat [5] was 118.5 x10_4/uL, the RBC [5] was 740.6 x10_4/ul and the Ret [5] was 3.4%. It also gave a WBC [5] of 170.5 x10_2/uL, a KIDNEY_L [3] of 1.2 g and a KIDNEY_R [3] of 1.2 g. The KIDNEY_TOTAL [3] was 2.4 g, the KIDNEY_L [4] was 1.4 g and the KIDNEY_R [4] was 1.4 g. The KIDNEY_TOTAL [4] was 2.7 g, the KIDNEY_L [5] was 1.5 g and the KIDNEY_R [5] was 1.5 g. For the same compound, the KIDNEY_TOTAL [5] was 3 g, the ALP [3] was 952.8 IU/L and the ALT [3] was 34.2 IU/L. It also gave an AST [3] of 72.6 IU/L, a CRE [3] of 0.5 mg/dL and a DBIL [3] of 0.094 mg/dL. The IP [3] was 7.5 mg/dL, the K [3] was 4.2 meq/L and the LDH [3] was 197.8 IU/L. It also gave a Na [3] of 141.4 meq/L, an RALB [3] of 3.4 g/dL and a TBIL [3] of 0.2 mg/dL. The TC [3] was 68.4 mg/dL, the TG [3] was 96.4 mg/dL and the TP [3] was 5.6 g/dL. The gamma-GTP [3] was 3.4 IU/L, the ALP [4] was 873.6 IU/L and the ALT [4] was 38.6 IU/L. It also gave an AST [4] of 72.8 IU/L, a BUN [4] of 17.8 mg/dL and a CRE [4] of 0.4 mg/dL. The DBIL [4] was 0.1 mg/dL, the IP [4] was 7.2 mg/dL and the K [4] was 4 meq/L. It also gave an LDH [4] of 185.4 IU/L, a Na [4] of 142.6 meq/L and an RALB [4] of 3.5 g/dL. It also gave a TBIL [4] of 0.2 mg/dL, a TC [4] of 67.2 mg/dL and a TG [4] of 128.6 mg/dL. For the same compound, the TP [4] was 5.9 g/dL, the gamma-GTP [4] was 1 IU/L and the ALP [5] was 643.2 IU/L. It also gave an ALT [5] of 33.2 IU/L, an AST [5] of 66 IU/L and a BUN [5] of 17 mg/dL. It also gave a CRE [5] of 0.5 mg/dL, a DBIL [5] of 0.096 mg/dL and a GLC [5] of 244 mg/dL. The IP [5] was 7.3 mg/dL, the K [5] was 3.9 meq/L and the LDH [5] was 176.8 IU/L. For the same compound, the Na [5] was 141.8 meq/L, the RALB [5] was 3.2 g/dL and the TBIL [5] was 0.2 mg/dL. For the same compound, the TC [5] was 65.2 mg/dL, the TG [5] was 121.4 mg/dL and the TP [5] was 5.7 g/dL. The gamma-GTP [5] was 0.8 IU/L, the TERMINAL_BW [6] was 230.2 g and the Bas [6] was 0.6%. For the same compound, the Eos [6] was 0.4%, the Fbg [6] was 378.4 mg/dL and the Lym [6] was 66.6%. The MCH [6] was 21.2 pg, the MCHC [6] was 34.1% and the MCV [6] was 61.9 fL. The Mono [6] was 4.4%, the Neu [6] was 25.6% and the PT [6] was 11.6 s. The RBC [6] was 512.4 x10_4/ul, the Ret [6] was 7.1% and the WBC [6] was 150.3 x10_2/uL. It also gave a KIDNEY_L [6] of 1.2 g, a KIDNEY_R [6] of 1.2 g and a KIDNEY_TOTAL [6] of 2.5 g. The ALP [6] was 536 IU/L, the ALT [6] was 26 IU/L and the AST [6] was 52.4 IU/L. It also gave a BUN [6] of 17 mg/dL, a CRE [6] of 0.4 mg/dL and a DBIL [6] of 0.072 mg/dL. The IP [6] was 8.2 mg/dL, the K [6] was 4.1 meq/L and the LDH [6] was 165.8 IU/L. For the same compound, the Na [6] was 140.8 meq/L, the RALB [6] was 2.4 g/dL and the TBIL [6] was 0.1 mg/dL. For the same compound, the TC [6] was 71.6 mg/dL, the TG [6] was 110.4 mg/dL and the TP [6] was 4.9 g/dL. The gamma-GTP [6] was 1.2 IU/L, the TERMINAL_BW [7] was 231.5 g and the TERMINAL_BW [8] was 312.2 g. The Bas [7] was 0.6%, the Eos [7] was 0.6% and the Fbg [7] was 379.2 mg/dL. For the same compound, the Lym [7] was 55.6%, the MCH [7] was 20.6 pg and the MCHC [7] was 32.5%. It also gave an MCV [7] of 63.4 fL, a Mono [7] of 4.8% and a Neu [7] of 36.6%. For the same compound, the PT [7] was 12 s, the Plat [7] was 251.1 x10_4/uL and the RBC [7] was 387 x10_4/ul. For the same compound, the Ret [7] was 17.2%, the WBC [7] was 145.2 x10_2/uL and the Bas [8] was 1%. For the same compound, the Eos [8] was 0%, the Fbg [8] was 283.5 mg/dL and the Lym [8] was 62%. The MCH [8] was 20.8 pg, the MCHC [8] was 33% and the MCV [8] was 63 fL. For the same compound, the Mono [8] was 4%, the Neu [8] was 32% and the PT [8] was 11.5 s. For the same compound, the Plat [8] was 174 x10_4/uL, the RBC [8] was 636.5 x10_4/ul and the Ret [8] was 8.5%. The WBC [8] was 190.7 x10_2/uL, the KIDNEY_L [7] was 1.1 g and the KIDNEY_R [7] was 1.1 g. The KIDNEY_TOTAL [7] was 2.2 g, the KIDNEY_L [8] was 1.5 g and the KIDNEY_R [8] was 1.5 g. For the same compound, the KIDNEY_TOTAL [8] was 3 g, the ALP [7] was 1681.8 IU/L and the ALT [7] was 18 IU/L. The AST [7] was 74 IU/L, the BUN [7] was 53.4 mg/dL and the CRE [7] was 0.5 mg/dL. It also gave a DBIL [7] of 0.1 mg/dL, a GLC [7] of 153 mg/dL and an IP [7] of 9.7 mg/dL. The K [7] was 5.8 meq/L, the LDH [7] was 221.2 IU/L and the Na [7] was 136 meq/L. It also gave an RALB [7] of 2.1 g/dL, a TBIL [7] of 0.2 mg/dL and a TC [7] of 66 mg/dL. It also gave a TG [7] of 111.4 mg/dL, a TP [7] of 5.1 g/dL and a gamma-GTP [7] of 7.4 IU/L. For the same compound, the ALP [8] was 580.5 IU/L, the ALT [8] was 32.5 IU/L and the AST [8] was 67 IU/L. It also gave a BUN [8] of 16 mg/dL, a CRE [8] of 0.4 mg/dL and a DBIL [8] of 0.095 mg/dL. For the same compound, the IP [8] was 7.5 mg/dL, the K [8] was 4.2 meq/L and the LDH [8] was 145.5 IU/L. The Na [8] was 142 meq/L, the RALB [8] was 3 g/dL and the TBIL [8] was 0.2 mg/dL. For the same compound, the TC [8] was 70 mg/dL, the TG [8] was 139.5 mg/dL and the TP [8] was 5.5 g/dL. For the same compound, the gamma-GTP [8] was 1 IU/L.

— ChEMBL document CHEMBL3885861, “Open TG-GATES”
